# Values quoted from earlier work in US20170042890A1, “METHODS OF REDUCING DECLINE IN VITAL CAPACITY” (Cytokinetics, Inc., priority 2014, published 2017).
# Assays:
# [1] = test system: ALS; details: cited from earlier work
# [2] = administered concomitantly with tirasemtiv; prior studies; cited from earlier work
structure (smiles),measurement,setting,value
Nc1nc2ccc(OC(F)(F)F)cc2s1 [riluzole],Effect on measurable parameters of neuromuscular or pulmonary function,[1],does not improve
same,Riluzole exposure,[2],approximately doubled
